Data set [1] deals with rat. The settings on record: Prenatal developmental toxicity study, sprague dawley, Oral, Gavage/Intubation, dose end: 19 GD.
The test system of data set [2] is rat. The note with it: Subchronic oral toxicity in rodents, sprague dawley, Gavage/Intubation, dose end: 13 week, group: systemic.
Data set [3] deals with rat. The settings on record: Prenatal developmental toxicity study, sprague dawley, Oral, Gavage/Intubation, dose end: 19 GD. This is another data set of the same source.
The test system of data set [4] is rabbit. The settings on record: Prenatal developmental toxicity study, dutch, Oral, Gavage/Intubation, dose end: 18 GD.
The subject of data set [5] is mouse. The note with it: Subchronic oral toxicity in rodents, cd1, Feed, dose end: 6 week, group: systemic.
Data set [6] deals with rat. The note with it: Subchronic oral toxicity in rodents, sprague dawley, Feed, dose end: 13 week, group: systemic.
Setting [7] is: group: developmental, systemic / in life observation / body weight / fetal weight.
Setting [8] is: group: maternal, systemic / in life observation / clinical signs / salivation + systemic / in life observation / body weight / body weight + systemic / in ….
The mark [9] stands for this setting: systemic / pathology microscopic / stomach / edema + systemic / pathology microscopic / stomach / hyperkeratosis + systemic / pathology ….
[10] abbreviates: group: maternal, reproductive / reproductive performance / estrous cycle / corpora lutea.
The mark [11] stands for this setting: group: maternal, systemic / in life observation / body weight / body weight + systemic / in life observation / body weight / body weight gain + systemic / in….
The mark [12] stands for this setting: group: developmental, developmental / developmental malformation / bone / unossified + systemic / in life observation / body weight / fetal weight.
The mark [13] stands for this setting: group: maternal, systemic / in life observation / body weight / body weight gain + systemic / in life observation / mortality / mortality.
Setting [14] is: group: maternal, systemic / in life observation / body weight / body weight gain + systemic / in life observation / mortality / mortality + reproductive / ….
The mark [15] stands for this setting: systemic / in life observation / body weight / body weight gain + systemic / pathology microscopic / stomach / [other] + systemic / ….
Where [16] appears, read: systemic / in life observation / clinical signs / piloerection + systemic / organ weight / heart / absolute + systemic / pathology gross / ….
Setting [17] is: systemic / hematology / leukocyte (wbc) count differential / leukocyte (wbc).

We go through 2 compounds from EPA's ToxRefDB 2.

What is called LOAEL is the lowest dose or exposure tested at which an adverse effect was seen. Usually NOAEL stands for the highest dose or exposure tested at which no adverse effect was seen.

On to `O=C(CBr)OCC=CCOC(=O)CBr` [1,4-Bis(bromoacetoxy)-2-butene], for which the LEL in data set [1] (setting [7]) came to 35 mg/kg/day; in data set [1] (group: maternal, systemic / in life observation / clinical signs / salivation + systemic / in life observation / clinical signs / fur (altered appearance) + …) it was 20 mg/kg/day; in data set [3] (setting [7]), 50 mg/kg/day; in data set [3] (setting [10]), 25 mg/kg/day. Also, the LOAEL is 35 mg/kg/day in data set [1] (setting [7]); 20 mg/kg/day in data set [1] (group: maternal, systemic / in life observation / clinical signs / salivation); 4.5 mg/kg/day in data set [2] (setting [9]); 50 mg/kg/day in data set [3] (setting [7]); 50 mg/kg/day in data set [3] (setting [11]). Also, the NEL in data set [1] (setting [7]) is 20 mg/kg/day; in data set [1] (setting [8]) it was 5 mg/kg/day; in data set [2] (systemic / clinical chemistry / calcium / calcium + systemic / clinical chemistry / glucose / glucose + systemic / clinical chemistry / urea…), 39.1 mg/kg/day; in data set [3] (setting [7]) it was 25 mg/kg/day; in data set [3] (setting [10]), < 25 mg/kg/day. The NOAEL in data set [1] (setting [7]) was 20 mg/kg/day; in data set [1] (setting [8]) it was 5 mg/kg/day; in data set [2] (setting [9]), < 4.5 mg/kg/day; in data set [3] (setting [7]) it was 25 mg/kg/day; in data set [3] (setting [11]) it was 25 mg/kg/day.
Regarding `Clc1nc(Cl)nc(Nc2ccccc2Cl)n1` [Anilazine], the results for the LEL in data set [4] (setting [12]), in data set [4] (setting [13]) and in data set [5] (setting [16]) were 75 mg/kg/day, 40 mg/kg/day and 334 mg/kg/day, respectively. The LOAEL in data set [4] (setting [12]) was found to be 75 mg/kg/day; in data set [4] (setting [13]), 40 mg/kg/day; in data set [5] (setting [15]) it was 1380 mg/kg/day; in data set [6] (setting [17]), 45.9 mg/kg/day. Also, the NEL in data set [4] (setting [12]) is 40 mg/kg/day; in data set [4] (setting [14]) it was 15 mg/kg/day; in data set [5] (setting [16]), < 334 mg/kg/day; in data set [6] (systemic / organ weight / liver / relative to body weight + systemic / organ weight / lung / relative to body weight + systemic / organ …) it was 600 mg/kg/day. Besides, the NOAEL in data set [4] (setting [12]) is 40 mg/kg/day; in data set [4] (setting [14]), 15 mg/kg/day; in data set [5] (setting [15]), 339 mg/kg/day; in data set [6] (setting [17]), < 45.9 mg/kg/day.
